Test results: patent US12447167B2, “GM-CSF-producing t-cell control agent and Th1/Th2 immune balance regulator” (National Center of Neurology and Psychiatry, priority 2014, dated 2025)

Legend:
[1] = test system: GM-CSF production from lymph node T-cells; assay: Amount of GM-CSF in lymph node cell culture supernatants of mice after oral dose (ELISA); format: in vivo, C57BL/6 mice; conditions: for suppressive effects on GM-CSF production from lymph node T-cells: oral high dose 1 mg/kg
Experimental: Compound 31 was orally administered to 8-week-old C57BL/6 mice (female) by using a probe. The dose employed 15 μg/kg (low dose) of compound 31 or 1 mg/kg (high dose) of compound 31 dissolved in 200 μL of mouse drinking water. As a control, 200 μL of mouse drinking water was administered alone.
2 days or 7 days after the oral administration of compound 31, each mouse was euthanized by cervical dislocation, and axillary and inguinal lymph nodes were collected. The collected lymph nodes were disrupted on BD Falcon Cell Strainer (Becton, Dickinson and Company) having a diameter of 40 μm, PBS was added, and the resultant was recovered into a 50-mL conical tube and centrifuged at 1500 rpm for 5 minutes, and then, a supernatant was removed by suction.
The recovered cells were suspended into a single cell suspension by adding 1000 μL of an RPMI medium (Life Technologies Corp.) containing 10% FBS (Fetal Bovine Serum; Life Technologies Corp.), and then, the number of cells was measured with a counting chamber.
On the day prior to the lymph node collection from the mice after the administration, an anti-CD3 monoclonal antibody (self-produced) and an anti-CD28 antibody (Becton, Dickinson and Company) were each adjusted to 1 μg/mL with PBS, placed at 50 μL to each well of BD Falcon 96-well flat bottom plate (Becton, Dickinson and Company), and stored at 4° C. so that the plate was coated with the anti-CD3/CD28 antibodies. The prepared single cell suspension was inoculated at 5×10^5 cells/well to the plate and then cultured at 37° C. for 48 hours in a 5% CO2 incubator to perform stimulation with the anti-CD3 antibody and the anti-CD28 antibody.
A supernatant was recovered, and the concentration of GM-CS contained in the culture supernatant was measured by using an ELISA kit (OptEIA Mouse GM-CSF ELISA set; Becton, Dickinson and Company) according to the attached document.

[2] = test system: GM-CSF-producing CD4-positive memory T-cells; assay: GM-CSF-producing CD4-positive memory T-cells in PBMCs of normal subjects after single oral dose (FACS); format: in vivo, human
Experimental: A single dose of compound 31, which is a synthetic glycolipid of the present invention, described in the first aspect, i.e., (2S,3S,4R)-1-O-(α-D-galactosyl)-2-(N-tetracosanoylamino)-1,3,4-nonanetriol represented by the following formula (III), was orally administered to each of subjects of 4 cohorts (A, B, C, and D cohorts) each consisting of 3 normal subjects shown in Table 1 above after obtainment of informed consent.
The dose was set to 0.3 mg per person for A cohort, 1 mg per person for B cohort, 3 mg per person for C cohort, and 10 mg per person for D cohort.
Subsequently, T-cell subfractions were prepared from the peripheral blood of each subject by using the density gradient centrifugation method. First, a total of 20 mL of blood was collected from the vein of each subject 24 hours (1st day), 48 hours (2nd day), 72 hours (3rd day), and 168 hours (7th day) after the administration of compound 31 by using two 10-mL heparin sodium-containing vacuum blood collection tubes. For a control, 20 mL of blood was similarly collected from the vein of each subject one day before the administration of compound 31.
Next, 4 mL of Ficoll-Paque Plus (GE Healthcare Biosciences Corp.) was placed in each of four 15-mL conical tubes, and 10 mL of blood diluted twice with phosphate buffered saline (PBS) was gently layered thereon. Then, density gradient centrifugation was performed by centrifugation at 1800 rpm at ordinary temperature for 30 minutes. After the centrifugation, a supernatant containing plasma and platelet was discarded, and lymphocytes present at the boundary layer between the supernatant layer and the Ficoll-Paque Plus layer were recovered into a fresh 50-mL conical tube. The 50-mL conical tube was filled by adding PBS thereto, followed by centrifugation at 1800 rpm at ordinary temperature for 5 minutes. […] After a supernatant was removed by suction again, a single cell suspension was prepared by adding 1 mL of AIM-V medium (Life Technologies Corp.), and then, the number of cells was measured with a counting chamber. […]

## CCCCCCCCCCCCCCCCCCCCCCCC(=O)NC(COC1OC(CO)C(O)C(O)C1O)[C@H](O)C(O)CCCCC (stereo in doubt) [compound 31, (2S,3S,4R)-1-O-(α-D-galactosyl)-2-(N-tetracosanoylamino)-1,3,4-nonanetriol]
[1]; 2nd day after administration
  suppressive effects on GM-CSF production from lymph node T-cells: not seen
[1]; 7th day after administration
  suppressive effects on GM-CSF production from lymph node T-cells: observed
[1]; oral low dose 15 μg/kg, anti-CD3/CD28 stimulation 48 h, vs vehicle
  GM-CSF production from lymph node T-cells: significantly suppressed
[2]; A cohort, 0.3 mg single oral (low dose)
  suppressive effects on CD4-positive memory T-cells: high suppressive effects
[2]; C and D cohorts (3 mg, 10 mg), 1 day after administration, transient
  growth of GM-CSF-producing CD4-positive memory T-cells: promoted
[2]; single oral dose, all cohorts (0.3, 1, 3, 10 mg), after administration vs pre-administration value (day-1)
  proportion of GM-CSF-producing CD4-positive memory T-cells in PBMCs: decreased
